Laboratory results as given in patent US20050119344A1, “Medium for radical treatment of tumors, inflammatory processes, fungal infections and other affections of the tissues, diagnostic and prophylactic and method of its implementation” (priority 2001, published 2005).

Tests used:
benign human skin tumors = settings: through rub in
From the text: (§1) The treatment is provided by rub in the medium with a tampon impregnated with it, directly in the tumor (by the skin ones), or in the accessible surface of the healthy tissue situated near by it. The rub in takes place repeatedly, with waiting for the absorption of the solution, until the tumor is saturated with formic acid in such a degree, that the blood in its blood-vessels coagulates and so that the tumor will be necrotized. […] By the benign tumor the treatment shall include mechanical irritation of its tissue too, with the purpose to stimulate the blood-circulation in it, by which the blood-vessels will be filled out and their surface will be enlarged on the account of the thickness of their walls. Such a treatment can be utilized, if necessary, by the malignant tumors too.

[1] = tested on: pathologically altered tissue; settings: very weak solutions, in the range of 10%
From the text: By broader studies can be composed a table for the painfulness of the reaction by the different groups of tumors and other types of tissue alteration, depending on the solution concentration, the time of influence, for example by rub in and the deepness of the alteration.
The method has been applied for diagnostic of breast cancer.

[2] = tested on: inflammatory processes, mushroom formations, and other pathological alterations of the tissues
[3] = tested on: malign formation in the milk gland
From the text: as §1
In the concrete case the treatment is applied on the spouse and respectively parent of the inventors. The women is […], with two side fibrose mastopatia. On 19 Nov. 2001 by an echographic examination has been discovered malign formation in the left breast, sector 12h, with the above mentioned dimensions and deepness, (FIG. 1 and FIG. 2). The diagnosis was confirmed through punctual biopsy. The treatment by the above-mentioned method began on 23 Nov. 2001 in the evening. […] The procedures continued three times daily in the following days.

`O=CO` [formic acid, formic (methane) acid (HCOOH)] was tested, and the “elimination of benign human skin tumors” value (benign human skin tumors) was “repeatedly implemented for the elimination”, the “reaction when hitting places with pathologically altered tissue” value [1] was “give pain reaction” and the “action in inflammatory processes, mushroom formations and other tissue alterations” value ([2]; rub in, pulverizing, inhalations or other supply) was “acts very effectively and rapidly”. The “outcome in tooth grenolom” value ([2]; three cases) was “the extraction of the teeth was prevented”, the “state of the tumor tissue” value ([3]; concluded from echography, biopsy and lack of pain by rub in) was “necrotized” and the “echographic size of the flack” value ([3]; echography 11 Dec. 2001 (FIG. 5)) was “the flack is diminished”. The “outcome of treatment of malign formation in the milk gland” value ([3]; only through rub in, formation 5.7 to 7.4 mm, about 8 mm deep) was “successfully implemented” and the “second punction biopsy, cancer cells” value ([3]; person, rub in three times daily from 23 Nov. 2001, biopsy 01 Dec. 2001) was “have not been observed cancer cells”.
